Experimental findings from patent US20080317857A1, “V-Atpase Inhibitors of Use in the Treatment of Septic Shock” (Brane Discovery S.r.l., priority 2005, published 2008) are described below.

Structures are written as SMILES.

This experiment relates to murine encephalitogenic T lymphocytes in inflamed brain venules. The experiment can be described thus: Intravital microscopy: lymphocyte recruitment in inflamed brain microcirculation. The format is in vivo, mice (SJL). To be noted: cells treated with 50 μM for 1 h. As to the method:
Murine encephalitogenic T lymphocytes were labeled with either green CMFDA (5-chloromethylfluorescein diacetate; Molecular Probes) or orange CMTMR (5-(and-6)-(((4-chloromethyl)benzoyl)amino)tetramethylrhodamine) (Molecular Probes). SJL young females (Harlan-Nossan, Udine, Italy) were housed and used according to current European Community rules. In order to inflame brain endothelium, mice were injected intraperitoneally with 12 μg lipopolysaccharide (LPS) (Escherichia coli 026:B6; Sigma) 5 to 6 hours before the intravital experiment was started. […] Fluorescence-labeled cells (2×10^6)/condition were slowly injected into the carotid artery through a digital pump. Images were visualized by using a silicon-intensified target videocamera (VE-1000 SIT; Dage MTI, Michigan City, Ind.) and a Sony SSM-125CE monitor and were recorded using a digital videocassette recorder (NV-DV10000; Panasonic).
Video analysis was performed by playback of digital videotapes. Vessel diameter (D), hemodynamic parameters, and the velocities of rolling were determined by using a personal computer-based system. The velocities of 20 or more consecutive freely flowing cells per venule were calculated.
From the velocity of the fastest cell in each venule (Vfast), we calculated the mean blood flow velocities (Vm): […]. […]

As to `COC(=O)c1[nH]c2cc(OC)c(OC)cc2c1-c1ccc(OC)cc1` [Example 1], the autoreactive lymphocyte rolling entry is recorded as “no effect” and the sticking/firm arrest result is recorded as “highly blocked”.
